# Measured values taken from patent US9914736B2, “TrKA kinase inhibitors, compositions and methods thereof” (Merck Sharp & Dohme Corp., priority 2014, dated 2018).
# Molecular target: human TrkA receptor (Homo sapiens (Human), UniProt P04629)
# Assay: DiscoverX PathHunter TrkA functional assay
# Format: cell-based
# Conditions: U2OS cells expressing human TrkA-ProLink, Shc1-EA and p75NTR; compound 1 h, then NGF at ~80% of maximal response for 3 h; luminescence
# Sequence of human TrkA receptor (P04629 33-796): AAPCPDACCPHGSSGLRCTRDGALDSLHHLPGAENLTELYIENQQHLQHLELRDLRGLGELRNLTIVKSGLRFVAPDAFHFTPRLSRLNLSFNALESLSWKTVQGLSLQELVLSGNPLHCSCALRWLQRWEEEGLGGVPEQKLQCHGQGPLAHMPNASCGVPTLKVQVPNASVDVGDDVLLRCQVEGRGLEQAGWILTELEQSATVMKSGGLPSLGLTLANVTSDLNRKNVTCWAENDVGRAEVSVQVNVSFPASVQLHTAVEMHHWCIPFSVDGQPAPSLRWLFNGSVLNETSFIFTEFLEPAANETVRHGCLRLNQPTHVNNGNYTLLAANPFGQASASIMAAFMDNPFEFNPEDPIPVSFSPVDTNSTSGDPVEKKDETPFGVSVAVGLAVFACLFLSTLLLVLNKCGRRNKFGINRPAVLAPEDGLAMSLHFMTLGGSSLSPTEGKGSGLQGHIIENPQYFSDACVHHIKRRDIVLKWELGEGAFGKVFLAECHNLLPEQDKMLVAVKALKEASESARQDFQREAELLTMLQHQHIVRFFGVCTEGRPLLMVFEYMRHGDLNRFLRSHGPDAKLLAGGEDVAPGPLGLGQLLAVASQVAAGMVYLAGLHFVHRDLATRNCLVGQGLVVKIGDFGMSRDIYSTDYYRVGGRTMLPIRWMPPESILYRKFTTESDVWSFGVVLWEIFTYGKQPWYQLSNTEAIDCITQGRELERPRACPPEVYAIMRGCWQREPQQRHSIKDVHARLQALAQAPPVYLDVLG
row,SMILES,IC50 [nM]
1,"Cc1cc(-n2nc(CNCCO)cc2NC(=O)c2ccc(C(F)(F)F)c(-c3ccn(C)n3)c2)[nH]n1 [Compound 68, N-(3-{[(2-hydroxyethyl)amino]methyl}-5′-methyl-2′H-1,3′-bipyrazol-5-yl)-3-(1-methyl-1H-pyrazol-3-yl)-4-(trifluoromethyl)benzamide]",240
2,"Cc1cc(-n2nc(CN3CCCC3)cc2NC(=O)c2ccc(C(F)(F)F)c(-c3ccn(C)n3)c2)[nH]n1 [Compound 69, 3-(1-methyl-1H-pyrazol-3-yl)-N-[5′-methyl-3-(pyrrolidin-1-ylmethyl)-2′H-1,3′-bipyrazol-5-yl]-4-(trifluoromethyl)benzamide]",240
3,"Cc1cc(NC(=O)c2ccc(OC(F)(F)F)c(-c3ccn(C)n3)c2)n(-c2ccc(F)cc2)n1 [Compound 73, N-[1-(4-fluorophenyl)-3-methyl-1H-pyrazol-5-yl]-3-(1-methyl-1H-pyrazol-3-yl)-4-(trifluoromethoxy)benzamide]",57
4,"Cc1cc(-c2nn(C)cc2NC(=O)c2ccc(C(F)(F)F)c(-c3ccn(C)n3)c2)[nH]n1 [Compound 74, N-(1,5′-dimethyl-1H,2′H-3,3′-bipyrazol-4-yl)-3-(1-methyl-1H-pyrazol-3-yl)-4-(trifluoromethyl)benzamide]",180
5,"CCn1ccc(-c2cc(C(=O)Nc3cc(C)nn3-c3ccc(F)cc3)ccc2C(F)(F)F)n1 [Compound 75, 3-(1-ethyl-1H-pyrazol-3-yl)-N-[1-(4-fluorophenyl)-3-methyl-1H-pyrazol-5-yl]-4-(trifluoromethyl)benzamide]",89
6,"Cc1cc(-n2nc(C(=O)NCc3cccnc3)cc2NC(=O)c2cc(-c3ccn(C)n3)c(C(F)(F)F)cc2F)[nH]n1 [Compound 76, 5-({[2-fluoro-5-(1-methyl-1H-pyrazol-3-yl)-4-(trifluoromethyl)phenyl]carbonyl}amino)-5′-methyl-N-(pyridin-3-ylmethyl)-2′H-1,3′-bipyrazole-3-carboxamide]",0.39

# The next lines start with the values.
row,IC50 [nM],SMILES
1,3.7,"Cn1ccc(-c2cc(C(=O)Nc3cc(Cn4ncnn4)nn3-c3ccccc3)ccc2C(F)(F)F)n1 [Compound 67, 3-(1-methyl-1H-pyrazol-3-yl)-N-[1-phenyl-3-(2H-tetrazol-2-ylmethyl)-1H-pyrazol-5-yl]-4-(trifluoromethyl)benzamide]"
2,390,"O=C(Nc1cc(-c2ccc(=O)[nH]n2)nn1-c1ccccc1)c1ccc(C(F)(F)F)c(-c2ccn(CC(F)(F)F)n2)c1 [Compound 70, N-[3-(6-oxo-1,6-dihydropyridazin-3-yl)-1-phenyl-1H-pyrazol-5-yl]-3-[1-(2,2,2-trifluoroethyl)-1H-pyrazol-3-yl]-4-(trifluoromethyl)benzamide]"
3,89,"Cn1ccc(-c2cc(C(=O)Nc3cc(-c4ccc(=O)[nH]n4)nn3-c3ccccc3)ccc2OC(F)(F)F)n1 [Compound 71, 3-(1-methyl-1H-pyrazol-3-yl)-N-[3-(6-oxo-1,6-dihydropyridazin-3-yl)-1-phenyl-1H-pyrazol-5-yl]-4-(trifluoromethoxy)benzamide]"
4,62,"Cc1nc(NC(=O)c2ccc(C(F)(F)F)c(-c3ccn(C)n3)c2)c(-c2ccccc2)s1 [Compound 72, N-(2-methyl-5-phenyl-1,3-thiazol-4-yl)-3-(1-methyl-1H-pyrazol-3-yl)-4-(trifluoromethyl)benzamide]"
5,14,"Cn1ccc(-c2cc(C(=O)Nc3cc(Cc4nnn(CCO)n4)nn3-c3ccc(F)cc3)ccc2C(F)(F)F)n1 [Compound 77, N-[1-(4-fluorophenyl)-3-{[2-(2-hydroxyethyl)-2H-tetrazol-5-yl]methyl}-1H-pyrazol-5-yl]-3-(1-methyl-1H-pyrazol-3-yl)-4-(trifluoromethyl)benzamide]"
6,1.6,"CNC(=O)Cn1nnc(Cc2cc(NC(=O)c3ccc(C(F)(F)F)c(-c4ccn(C)n4)c3)n(-c3ccc(F)cc3)n2)n1 [Compound 78, N-[1-(4-fluorophenyl)-3-({2-[2-(methylamino)-2-oxoethyl]-2H-tetrazol-5-yl}methyl)-1H-pyrazol-5-yl]-3-(1-methyl-1H-pyrazol-3-yl)-4-(trifluoromethyl)benzamide]"
